Columns and labels:
Assay in all cases: relative viability (nuclei count vs DMSO), 5 days (fraction); higher = more cells survive
AZD5582 + Foretinib = compound: C[C@@H](C(=O)N[C@@H](C1CCCCC1)C(=O)N2CCC[C@H]2C(=O)N[C@@H]3[C@@H](CC4=CC=CC=C34)OCC#CC#CCO[C@@H]5CC6=CC=CC=C6[C@@H]5NC(=O)[C@@H]7CCCN7C(=O)[C@H](C8CCCCC8)NC(=O)[C@H](C)NC)NC [AZD5582] + COc1cc2c(Oc3ccc(NC(=O)C4(C(=O)Nc5ccc(F)cc5)CC4)cc3F)ccnc2cc1OCCCN1CCOCC1 [Foretinib] (partner 0.25 µM)
Method in brief: (§1)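 Lung cancer cell lines were pin-tool dosed in 1536-well plates on the day after seeding, with either a lone drug or a fixed anchor-drug dose plus five library-drug doses (not always all listed) in √10 steps. Nuclei were counted on 4× images after 5 days. Relative viability is the ratio of treated-well to vehicle-well nuclei counts, with each value a median of duplicate plates.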

Temozolomide + OSI-027 = compound: Cn1nnc2c(C(N)=O)ncn2c1=O [Temozolomide] + COc1cccc2cc(-c3nc([C@H]4CC[C@H](C(=O)O)CC4)n4ncnc(N)c34)[nH]c12 [OSI-027] (partner 0.5 µM)
Method in brief: as §1

Temozolomide + Lapatinib = compound: Cn1nnc2c(C(N)=O)ncn2c1=O [Temozolomide] + CS(=O)(=O)CCNCc1ccc(-c2ccc3ncnc(Nc4ccc(OCc5cccc(F)c5)c(Cl)c4)c3c2)o1 [Lapatinib] (partner 2 µM)
Method in brief: as §1

[1] = compound: Cn1nnc2c(C(N)=O)ncn2c1=O [Temozolomide] + Nc1nc2[nH]cc(CCc3ccc(C(=O)N[C@@H](CCC(=O)O)C(=O)O)cc3)c2c(=O)[nH]1 [Pemetrexed] (partner 0.2 µM)
Method in brief: as §1

Cell Line	relative viability (AZD5582 + Foretinib; first compound 0.001581 µM)	relative viability (AZD5582 + Foretinib; first compound 0.005 µM)	relative viability (AZD5582 + Foretinib; first compound 0.05 µM)	relative viability (Temozolomide + OSI-027; first compound 0.6325 µM)	relative viability (Temozolomide + OSI-027; first compound 2 µM)	relative viability (Temozolomide + OSI-027; first compound 6.325 µM)	relative viability (Temozolomide + OSI-027; first compound 20 µM)	relative viability (Temozolomide + Lapatinib; first compound 0.6325 µM)	relative viability (Temozolomide + Lapatinib; first compound 2 µM)	relative viability (Temozolomide + Lapatinib; first compound 6.325 µM)	relative viability (Temozolomide + Lapatinib; first compound 20 µM)	relative viability ([1]; first compound 0.2 µM)	relative viability ([1]; first compound 0.6325 µM)	relative viability ([1]; first compound 2 µM)	relative viability ([1]; first compound 6.325 µM)	relative viability ([1]; first compound 20 µM)	relative viability (AZD5582 + Foretinib; first compound 0.01581 µM)	relative viability (Temozolomide + OSI-027; first compound 0.2 µM)	relative viability (Temozolomide + Lapatinib; first compound 0.2 µM)
NCI-H322M	1.07	1.06	1.29	0.525	0.569	0.54	0.433	0.568	0.574	0.599	0.535	0.56	0.591	0.635	0.499	0.536	–	–	–
NCI-H358	0.684	0.938	0.626	0.795	0.697	0.689	0.583	0.572	0.475	0.439	0.419	0.196	0.173	0.18	0.164	0.17	0.779	0.437	0.538
NCI-H460	0.916	1.03	0.97	0.688	0.761	0.682	0.656	1.03	1.12	1	1.24	0.0579	0.0556	0.0638	0.0585	0.0573	0.952	0.853	1.23
NCI-H520	0.651	0.777	0.697	0.298	0.255	0.271	0.239	0.87	1	0.903	0.993	0.723	0.595	0.711	0.631	0.74	0.81	0.211	0.927
NCI-H596	–	–	0.279	0.76	0.692	0.691	0.835	1.11	1.26	0.929	1.2	0.515	0.535	0.621	0.465	0.574	1.19	0.835	1.3
NCI-H647	1.08	1.16	1.21	0.661	0.776	0.431	0.185	1.16	1.27	0.891	0.275	0.169	0.17	0.2	0.146	0.122	1.1	0.676	1.41
NCI-H650	1	0.958	0.794	0.535	0.584	0.506	0.534	0.888	0.995	1.03	1.07	0.934	0.902	0.963	0.96	0.961	0.91	0.562	1.02
NCI-H661	0.954	0.982	0.98	0.759	0.737	0.716	0.55	0.599	0.506	0.433	0.508	0.92	0.882	1.01	0.858	0.759	1.03	0.534	–
NCI-H838	0.985	1.19	1.06	0.485	0.397	0.419	0.411	1.03	1.17	0.945	1.25	0.247	0.256	0.254	0.252	0.233	–	0.426	0.998
NCI-H1355	0.894	0.881	0.705	0.421	0.455	0.382	0.352	1.01	0.974	1.02	0.99	1.01	1.03	0.963	1	0.998	0.938	0.349	1.06
NCI-H1395	0.979	1.14	1.14	0.604	0.686	0.513	0.659	1.19	1.5	0.903	0.968	0.931	0.983	1.03	0.769	0.754	1.04	0.629	1.07
NCI-H1437	1.17	1.22	1.16	0.877	0.952	0.922	0.906	0.817	0.822	0.875	0.975	0.31	0.317	0.376	0.316	0.277	1.24	0.863	0.8
NCI-H1563	0.897	0.958	0.924	0.817	0.77	0.789	0.796	0.89	0.993	0.859	1	0.71	0.798	0.744	0.739	0.747	0.894	0.781	0.889
NCI-H1650	0.971	1.33	0.889	0.788	0.651	0.596	0.409	0.925	0.783	0.662	0.743	0.335	0.349	0.443	0.355	0.459	1.27	0.638	0.991
NCI-H1651	0.714	0.883	1.16	0.727	0.657	0.636	0.636	0.881	0.876	0.754	0.934	0.58	0.588	0.591	0.6	0.617	–	0.724	0.969
NCI-H1666	0.786	1.02	0.907	0.822	0.789	0.65	0.672	0.706	0.486	0.495	0.536	0.736	0.895	0.963	0.877	0.767	0.953	0.81	0.626
NCI-H1734	0.814	0.892	1.11	0.562	0.667	0.578	0.649	1.06	1.07	0.955	1.05	0.398	0.422	0.431	0.394	0.386	0.968	0.685	1.12
